The target in one data set is Cytochrome P450 2C19 (Homo sapiens, UniProt P33261). The data set can be described thus: Activity of recombinant human CYP2C19 expressed in microsomes isolated from baculovirus infected insect cell assessed as enzyme-mediated 2-(2-((R)-3-((1-(carboxymethyl)cyclopropyl)methylthio)-3-(3-(2-(7-chloroquinolin-2-yl)vinyl)phenyl)propyl)phenyl)-2-hydroxypropanoic acid formation at 1 uM after 30 mins by LC-MS analysis. The conditions noted are these: 0.5 h. Format: ADME.

The target in data set [1] is T1, Cytochrome P450 2C9 (Homo sapiens, UniProt P11712). The data set can be described thus: Activity of recombinant human CYP2C9 expressed in microsomes isolated from baculovirus infected insect cell assessed as enzyme-mediated compound formation treated with montelukast at 1 uM after 60 mins by LC-MS analysis. Format: ADME. The following applies: 1 h.
T1 sequence (P11712 whole entry): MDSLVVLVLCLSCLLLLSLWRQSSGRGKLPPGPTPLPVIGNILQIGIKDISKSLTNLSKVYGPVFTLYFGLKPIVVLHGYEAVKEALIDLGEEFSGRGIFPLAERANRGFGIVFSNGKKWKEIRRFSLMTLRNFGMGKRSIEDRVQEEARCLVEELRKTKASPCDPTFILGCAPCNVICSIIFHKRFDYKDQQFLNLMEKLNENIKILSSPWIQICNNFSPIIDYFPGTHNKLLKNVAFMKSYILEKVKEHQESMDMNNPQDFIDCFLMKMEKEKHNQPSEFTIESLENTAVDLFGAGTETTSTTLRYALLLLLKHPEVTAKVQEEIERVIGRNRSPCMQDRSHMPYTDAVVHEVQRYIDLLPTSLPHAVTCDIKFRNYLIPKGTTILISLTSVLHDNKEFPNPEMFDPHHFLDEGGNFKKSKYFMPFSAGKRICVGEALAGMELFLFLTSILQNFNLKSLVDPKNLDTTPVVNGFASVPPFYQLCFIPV
Data set [2] has as its target T1, Cytochrome P450 2C9. The experiment in a line: Activity of recombinant human CYP2C9 expressed in microsomes isolated from baculovirus infected insect cell assessed as enzyme-mediated 2-(2-((R)-3-((1-(carboxymethyl)cyclopropyl)methylthio)-3-(3-(2-(7-chloroquinolin-2-yl)vinyl)phenyl)propyl)phenyl)-2-hydroxypropanoic acid formation at 0.02 uM after 30 mins by LC-MS analysis. The format is ADME. The conditions noted are these: 0.5 h.

The target in a further data set is Cytochrome P450 3A5 (Homo sapiens, UniProt P20815). The data set can be described thus: Activity of recombinant human CYP3A5 expressed in microsomes isolated from baculovirus infected insect cell assessed as enzyme-mediated 2-(2-((R)-3-((1-(carboxymethyl)cyclopropyl)methylthio)-3-(3-(2-(7-chloroquinolin-2-yl)vinyl)phenyl)propyl)phenyl)-2-hydroxypropanoic acid formation at 1 uM after 30 mins by LC-MS analysis. Format: ADME. The conditions noted are these: 0.5 h.
Sequence of Cytochrome P450 3A5 (P20815 whole entry): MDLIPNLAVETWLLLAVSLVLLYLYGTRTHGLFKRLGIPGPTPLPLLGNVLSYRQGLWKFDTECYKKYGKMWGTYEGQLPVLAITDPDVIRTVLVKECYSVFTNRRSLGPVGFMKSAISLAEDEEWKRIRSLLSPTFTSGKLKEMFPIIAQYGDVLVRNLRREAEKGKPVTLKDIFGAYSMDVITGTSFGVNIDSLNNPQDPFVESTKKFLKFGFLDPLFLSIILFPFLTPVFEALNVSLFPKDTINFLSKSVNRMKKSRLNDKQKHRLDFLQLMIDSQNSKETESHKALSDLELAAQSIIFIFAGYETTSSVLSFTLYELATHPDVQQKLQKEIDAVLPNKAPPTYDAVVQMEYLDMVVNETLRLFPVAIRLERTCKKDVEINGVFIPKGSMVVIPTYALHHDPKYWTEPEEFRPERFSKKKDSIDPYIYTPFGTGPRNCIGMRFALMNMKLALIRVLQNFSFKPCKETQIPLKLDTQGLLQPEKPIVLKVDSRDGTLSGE

The target in a further data set is Cytochrome P450 2E1 (Homo sapiens, UniProt P05181). The data set can be described thus: Activity of recombinant human CYP2E1 expressed in microsomes isolated from baculovirus infected insect cell assessed as enzyme-mediated 2-(2-((R)-3-((1-(carboxymethyl)cyclopropyl)methylthio)-3-(3-(2-(7-chloroquinolin-2-yl)vinyl)phenyl)propyl)phenyl)-2-hydroxypropanoic acid formation at 1 uM after 30 mins by LC-MS analysis. Format: ADME. The conditions noted are these: 0.5 h.
Sequence of Cytochrome P450 2E1 (P05181 whole entry): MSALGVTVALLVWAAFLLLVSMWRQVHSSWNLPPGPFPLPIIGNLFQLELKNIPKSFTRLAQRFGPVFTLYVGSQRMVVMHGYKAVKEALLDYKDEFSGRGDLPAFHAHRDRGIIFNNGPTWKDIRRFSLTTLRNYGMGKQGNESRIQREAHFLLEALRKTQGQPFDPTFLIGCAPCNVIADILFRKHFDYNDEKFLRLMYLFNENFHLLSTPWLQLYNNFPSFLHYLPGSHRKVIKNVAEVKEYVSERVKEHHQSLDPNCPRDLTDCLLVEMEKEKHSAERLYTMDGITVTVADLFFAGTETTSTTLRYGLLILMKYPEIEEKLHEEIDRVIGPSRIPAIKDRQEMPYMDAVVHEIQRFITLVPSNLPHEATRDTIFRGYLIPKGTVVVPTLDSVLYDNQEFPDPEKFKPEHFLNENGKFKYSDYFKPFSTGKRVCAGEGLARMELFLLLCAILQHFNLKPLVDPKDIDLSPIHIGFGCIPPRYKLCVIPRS

The next data set has as its target T2, Cytochrome P450 2C8 (Homo sapiens, UniProt P10632).
T2 sequence (P10632 whole entry): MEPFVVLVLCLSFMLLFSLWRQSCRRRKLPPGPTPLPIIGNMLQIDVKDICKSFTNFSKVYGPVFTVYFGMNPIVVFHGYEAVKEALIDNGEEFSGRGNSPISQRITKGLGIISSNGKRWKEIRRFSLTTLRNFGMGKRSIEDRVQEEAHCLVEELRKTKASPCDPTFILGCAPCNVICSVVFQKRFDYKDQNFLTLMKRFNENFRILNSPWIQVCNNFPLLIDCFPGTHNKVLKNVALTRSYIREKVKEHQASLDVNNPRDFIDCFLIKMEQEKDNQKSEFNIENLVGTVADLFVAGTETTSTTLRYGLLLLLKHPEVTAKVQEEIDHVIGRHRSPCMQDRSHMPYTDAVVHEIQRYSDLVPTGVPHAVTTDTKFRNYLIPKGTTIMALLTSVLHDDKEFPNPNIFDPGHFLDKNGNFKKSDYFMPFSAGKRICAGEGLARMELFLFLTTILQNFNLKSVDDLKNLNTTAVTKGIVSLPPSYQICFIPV
The experiment in a line: Activity of recombinant human CYP2C8 expressed in microsomes isolated from baculovirus infected insect cell assessed as enzyme-mediated 2-(2-((R)-3-((1-(carboxymethyl)cyclopropyl)methylthio)-3-(3-(2-(7-chloroquinolin-2-yl)vinyl)phenyl)propyl)phenyl)-2-hydroxypropanoic acid formation at 0.02 uM after 30 mins by LC-MS analysis. Format: ADME. The conditions noted are these: 0.5 h.

Data set [3] can be described thus: Plasma protein binding in human. Format: ADME, cell-free.
Data set [4] has as its system Liver microsome. The data set can be described thus: Drug metabolism in human liver microsomes assessed as (R)-2-(1-((1-(3-(2-(7-chloroquinolin-2-yl)vinyl)phenyl)-3-(4-hydroxy-2-(2-hydroxypropan-2-yl)phenyl)propylthio)methyl)cyclopropyl)acetic acid formation at 0.1 uM after 12 mins by LC-MS analysis in presence of 2-(1-(((S)-1-(3-(2-(7-chloroquinolin-2-yl)vinyl)phenyl)-3-(2-(2-hydroxypropan-2-yl)phenyl)propylsulfinyl)methyl)cyclopropyl)acetic acid. The following applies: 0.2 h. The format is ADME.

The subject of data set [5] is Liver microsome. The experiment in a line: Drug metabolism in human liver microsomes assessed as (R)-2-(1-((1-(3-(2-(7-chloroquinolin-2-yl)vinyl)phenyl)-3-(4-hydroxy-2-(2-hydroxypropan-2-yl)phenyl)propylthio)methyl)cyclopropyl)acetic acid formation at 0.4 uM after 15 mins by LC-MS analysis in presence of CYP2C8 inhibitor gemfibrozil 1-O-beta glucuronide, CYP2A6 inhibitor 8-methoxy-psoralen and DDC. The following applies: 0.25 h. Format: ADME. In general terms: Liver microsomes are vesicles of endoplasmic reticulum, rich in cytochrome P450 enzymes.

In a further data set the target is Cytochrome P450 3A4 (Homo sapiens, UniProt P08684). The experiment in a line: Activity of recombinant human CYP3A4 expressed in microsomes isolated from baculovirus infected insect cell assessed as enzyme-mediated 2-(1-(((1R)-1-(3-(2-(7-chloroquinolin-2-yl)vinyl)phenyl)-3-hydroxy-3-(2-(2-hydroxypropan-2-yl)phenyl)propylthio)methyl)cyclopropyl)acetic acid formation at 1 uM after 60 mins by LC-MS analysis. The conditions noted are these: 1 h.
Sequence of Cytochrome P450 3A4 (P08684 whole entry): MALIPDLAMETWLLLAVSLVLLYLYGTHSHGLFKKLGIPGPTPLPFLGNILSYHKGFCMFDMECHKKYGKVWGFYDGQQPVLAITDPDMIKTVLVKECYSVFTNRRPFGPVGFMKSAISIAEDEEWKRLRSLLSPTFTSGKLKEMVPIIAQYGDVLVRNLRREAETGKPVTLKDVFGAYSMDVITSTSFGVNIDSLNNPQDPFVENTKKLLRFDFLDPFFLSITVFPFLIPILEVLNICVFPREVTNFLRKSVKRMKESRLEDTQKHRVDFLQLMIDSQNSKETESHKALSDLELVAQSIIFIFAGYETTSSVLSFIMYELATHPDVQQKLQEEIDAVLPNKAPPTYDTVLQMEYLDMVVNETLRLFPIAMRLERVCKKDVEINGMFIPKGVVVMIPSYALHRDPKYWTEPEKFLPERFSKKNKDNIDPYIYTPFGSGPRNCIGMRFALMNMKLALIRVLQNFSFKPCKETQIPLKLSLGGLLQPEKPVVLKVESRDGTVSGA

Data set [6] relates to Liver microsome. The experiment in a line: Drug metabolism in human liver microsomes assessed as 2-(1-(((1R)-1-(3-(2-(7-chloroquinolin-2-yl)vinyl)phenyl)-3-hydroxy-3-(2-(2-hydroxypropan-2-yl)phenyl)propylthio)methyl)cyclopropyl)acetic acid formation at 0.1 uM after 12 mins by LC-MS analysis in presence of 2-(1-(((S)-1-(3-(2-(7-chloroquinolin-2-yl)vinyl)phenyl)-3-(2-(2-hydroxypropan-2-yl)phenyl)propylsulfinyl)methyl)cyclopropyl)acetic acid. Format: ADME. The conditions noted are these: 0.2 h.

The subject of data set [7] is Liver microsome. The experiment in a line: Drug metabolism in human liver microsomes assessed as 2-(1-(((1R)-1-(3-(2-(7-chloroquinolin-2-yl)vinyl)phenyl)-3-hydroxy-3-(2-(2-hydroxypropan-2-yl)phenyl)propylthio)methyl)cyclopropyl)acetic acid formation at 0.4 uM after 15 mins by LC-MS analysis in presence of CYP3A4 inhibitor ketoconazole and troleandomycin. Format: ADME. The conditions noted are these: 0.25 h.

In data set [8] the test system is Liver microsome. The data set can be described thus: Drug metabolism in human liver microsomes assessed as 2-(1-(((1R)-1-(3-(2-(7-chloroquinolin-2-yl)vinyl)phenyl)-3-(2-(1,2-dihydroxypropan-2-yl)phenyl)propylthio)methyl)cyclopropyl)acetic acid formation at 0.02 to 0.4 uM preincubated for 3 mins followed by beta-NADPH addition by LC-MS analysis. Format: ADME.
In data set [9] the test system is Liver microsome. The experiment in a line: Drug metabolism in human liver microsomes at 1 to 10 uM preincubated for 3 mins followed by beta-NADPH addition by LC-MS analysis. The format is ADME. The following applies: TDE = time-dependent effect.
Data set [10] concerns Liver microsome. The experiment in a line: Drug metabolism in human liver microsomes assessed as 2-(1-(((1R)-1-(3-(2-(7-chloroquinolin-2-yl)vinyl)phenyl)-3-hydroxy-3-(2-(2-hydroxypropan-2-yl)phenyl)propylthio)methyl)cyclopropyl)acetic acid formation at 0.4 uM after 15 mins by LC-MS analysis in presence of CYP1A2 inhibitor furafylline, CYP2B6 inhibitor clopidogrel, CYP2D6 inhibitor quinidine and CYP2C9 inhibitor sulfaphenazole. Format: ADME. The conditions noted are these: 0.25 h.

The test system of data set [11] is Liver microsome. The data set can be described thus: Drug metabolism in human liver microsomes at 1 to 10 uM preincubated for 3 mins followed by beta-NADPH addition by LC-MS analysis in presence of albumin. Format: ADME.

Each structure is given as a SMILES string.

Sequence of Cytochrome P450 2C19 (P33261 whole entry): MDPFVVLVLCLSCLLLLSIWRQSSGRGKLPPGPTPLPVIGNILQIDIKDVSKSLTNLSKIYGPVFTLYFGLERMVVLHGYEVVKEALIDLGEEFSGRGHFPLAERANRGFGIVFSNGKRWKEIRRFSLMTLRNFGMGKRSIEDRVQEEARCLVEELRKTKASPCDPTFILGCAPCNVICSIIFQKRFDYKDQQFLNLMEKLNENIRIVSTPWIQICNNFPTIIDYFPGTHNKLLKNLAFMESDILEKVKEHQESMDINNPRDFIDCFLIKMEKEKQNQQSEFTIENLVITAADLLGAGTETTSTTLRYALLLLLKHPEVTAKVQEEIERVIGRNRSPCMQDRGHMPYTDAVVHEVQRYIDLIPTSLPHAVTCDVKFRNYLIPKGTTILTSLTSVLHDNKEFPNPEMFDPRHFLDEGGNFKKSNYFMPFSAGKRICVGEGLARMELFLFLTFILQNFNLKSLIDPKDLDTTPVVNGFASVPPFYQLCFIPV

In the case of `CC(O)(CO)c1ccccc1CC[C@@H](SCC1(CC(=O)O)CC1)c1cccc(/C=C/c2ccc3ccc(Cl)cc3n2)c1` (stereo partly specified), the Drug metabolism result on Cytochrome P450 2C19 is “metabolite_not_detected”; at Cytochrome P450 2C9 [1], “metabolite_detected”; on Cytochrome P450 2C9 [2], “metabolite_not_detected”; on Cytochrome P450 3A5 it was “metabolite_not_detected”; on Cytochrome P450 2E1 it was “metabolite_not_detected”; on Cytochrome P450 2C8, “metabolite_detected”.
`CC(C)(O)c1ccccc1CC[C@@H](SCC1(CC(=O)[O-])CC1)c1cccc(/C=C/c2ccc3ccc(Cl)cc3n2)c1.[Na+]` [MONTELUKAST SODIUM]: in data set [3], the fraction unbound (in general, free concentration divided by total concentration) is less than 0.01. Moreover, the Drug metabolism result in the data set on Liver microsome [4] is given as “metabolite_not_detected”; in the data set with Liver microsome [5], “metabolite_not_detected”; on Cytochrome P450 3A4 it was “metabolite_detected”; in the data set on Liver microsome [6], “metabolite_detected”; in the data set on Liver microsome [7] it was “metabolite_not_detected”; with Liver microsome [8], “metabolite_detected”. Besides, the Drug metabolism entry in the data set with Liver microsome [9] was “tde”; in the data set with Liver microsome [10], “metabolite_detected”; in the data set on Liver microsome [11] it was “metabolite_not_detected”.
